Laboratory results: article PMC9503132, “Development of Halogenated-Chalcones Bearing with Dimethoxy Phenyl Head as Monoamine Oxidase-B Inhibitors” (Pharmaceuticals, 2022)
≈ marks a conversion by molar mass, not a printed value.

Experiments:
MAO-B [1] = target: T1, MAO-B (Homo sapiens, UniProt P27338); experiment: Reversibility of MAO-B inhibition by dialysis; type: biochemical; settings: for Reversibility of MAO-B inhibition: dialysis experiment; for Relative MAO-B activity, dialyzed (AD) / Relative MAO-B activity, undialyzed (AU): ~2 × IC50 (DM2 0.13, DM18 0.24, lazabemide 0.22, pargyline 0.28 µM), 30 min preincubation; for Relative MAO-B activity, dialyzed (AD): after dialysis
T1 construct: purchased Sigma-Aldrich
T1 sequence (P27338 1-520): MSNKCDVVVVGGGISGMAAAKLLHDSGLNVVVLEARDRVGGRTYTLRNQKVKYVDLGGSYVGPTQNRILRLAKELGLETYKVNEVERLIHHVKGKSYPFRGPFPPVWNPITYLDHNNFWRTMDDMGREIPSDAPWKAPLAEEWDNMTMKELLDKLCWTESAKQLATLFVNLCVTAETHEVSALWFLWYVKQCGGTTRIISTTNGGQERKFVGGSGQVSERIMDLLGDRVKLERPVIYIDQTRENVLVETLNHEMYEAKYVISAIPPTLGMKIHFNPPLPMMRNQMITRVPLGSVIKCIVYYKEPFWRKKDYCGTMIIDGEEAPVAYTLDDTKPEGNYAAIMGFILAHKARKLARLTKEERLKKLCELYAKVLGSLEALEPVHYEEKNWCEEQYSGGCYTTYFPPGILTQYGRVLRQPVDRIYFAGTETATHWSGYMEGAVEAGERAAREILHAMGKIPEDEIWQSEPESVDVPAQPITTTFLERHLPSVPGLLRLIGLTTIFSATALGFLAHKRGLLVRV
Experimental: To identify the reversibility patterns, the relative activities for samples dialyzed (AD) and for those undialyzed (AU) were compared.
By contrasting the recovery results of samples that had been dialyzed (AD) and undialyzed (AU), reversibility patterns were determined.

BChE = BChE (Equus caballus, UniProt P81908); experiment: biochemical; settings: read-out: Residual activity at 10 µM (%) BChE
Chain of BChE (P81908 whole entry): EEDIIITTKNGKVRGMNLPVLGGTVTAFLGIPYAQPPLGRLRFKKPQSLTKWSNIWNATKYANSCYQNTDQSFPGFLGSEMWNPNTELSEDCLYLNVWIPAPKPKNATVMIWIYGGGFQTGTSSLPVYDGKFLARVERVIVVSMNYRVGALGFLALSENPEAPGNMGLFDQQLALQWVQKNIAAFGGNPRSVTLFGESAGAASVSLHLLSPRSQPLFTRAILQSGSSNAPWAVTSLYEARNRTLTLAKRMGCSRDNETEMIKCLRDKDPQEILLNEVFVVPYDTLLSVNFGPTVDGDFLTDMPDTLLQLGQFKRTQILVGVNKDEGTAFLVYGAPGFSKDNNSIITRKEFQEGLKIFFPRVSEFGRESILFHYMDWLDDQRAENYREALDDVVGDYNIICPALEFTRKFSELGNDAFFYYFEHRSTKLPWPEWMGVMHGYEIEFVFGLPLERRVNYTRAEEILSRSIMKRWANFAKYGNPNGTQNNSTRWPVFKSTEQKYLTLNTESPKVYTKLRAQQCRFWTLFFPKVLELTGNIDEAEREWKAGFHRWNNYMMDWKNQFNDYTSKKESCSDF
Experimental: (§1) The AChE and BChE inhibitory activities were measured by continuous colorimetric determination method, in the presence of 0.5 mM acetylthiocholine iodide (ACTI) and butyrylthiocholine iodide […]
(§2) POP, K LAB, Daejeon, Korea). After adding the substrate, 0.5 mM 5,5-dithiobis (2-nitrobenzoic acid) (DTNB) was added as the color development solution. The BACE-1 inhibitory activity was evaluated by β-secretase (BACE1) activity detection kit (Sigma-Aldrich, St. Louis, Mo, USA) using a fluorescence spectrometer (FS-2, Scinco, Seoul, Korea). […]

Vero cells = experiment: MTT cytotoxicity test on Vero cells; type: cell-based, African green monkey; settings: 300 µg/mL, 48 h, phase contrast microscope
Experimental: (§3) Vero cells were treated to various doses (10–500 µg/mL) for 48 h, and relative cell viability was determined by measuring the absorbance at 570 nm with an ELISA microplate.
(§4) Cytotoxicity study of the lead molecule DM2 was carried out as previously described and as in Supplementary Materials described shortly.
(§5) Text S1. Supplementary procedure for toxicity evaluation
(§6) The cell line of Vero (African green monkey kidney cells) was procured from NCCS (Pune, India) and was grown in liquid medium (DMEM) containing 100 ug/mL penicillin, 100 µg/mL streptomycin, and 10% Fetal Bovine Serum (FBS) and preserved under an atmosphere of 5% CO2 at […]
(§7) The DM2 was assayed for in vitro cytotoxicity by MTT assay using the cultured Vero cells.
(§8) Briefly, the cultured Vero cells were produced by cell dissociation with trypsin (trypsinization), collectively in a 15 mL tube. At a density of 1×10^5 cells/mL cells/well (200 µL), the cells were plated for 24-48 h at 37°C into 96-well tissue culture plate in DMEM medium containing 10 % FBS and 1% antibiotic solution. The wells were washed with sterile phosphate buffered saline (PBS) and further allowed to react with varying concentrations of the DM2 in a serum free DMEM medium. The samples were triplicated and the cells were kept for incubation at 37°C for 24 h in a humidified 5% CO2 incubator. MTT (20 µL of 5 mg/mL) was added into each well after the incubation and the cells were incubated for another 2-4 h. The end point was determined by the purple precipitation, which was clearly seen under an inverted microscope. At the end, the medium along with MTT (220 µL) were used for the aspiration of the wells and later washed with 1X PBS (200 µL). In order to dissolve formazan crystals, DMSO (100 µL) was added to the plate with shaking for 5 min. The absorbance at 570 nm was measured using a micro plate reader (Thermo Fisher Scientific, USA). The IC50 value and the percentage cell viability was calculated using GraphPad Prism 8.0 software (USA).

[2] = MTT cytotoxicity test on Vero cells; type: cell-based, African green monkey; settings: African green monkey, Vero cells, MTT
Experimental: as §3, §4, §5, §6, §7, §8

MAO-B [3] = target: T1, MAO-B; experiment: MAO-B kinetic study (Lineweaver-Burk and secondary plots); type: biochemical; settings: for Inhibition pattern of MAO-B: Lineweaver-Burk plots, five substrate and three inhibitor concentrations; for Ki: secondary plots of LB slopes vs. inhibitor concentration
Experimental: (§9) MAO-A At 10 µM, compounds’ inhibitory effects on MAOs were initially recorded. […] The SI values of MAO-B were calculated by dividing the IC50 values for MAO-A and those for MAO-B. The MAO-B was used to study the kinetics of substances DM2 or DM18 at five different substrate concentrations. By using the LB plots and their secondary plots at three different inhibitor doses, the inhibition patterns were examined.

AChE = AChE (Electrophorus electricus, UniProt O42275); experiment: AChE inhibition (colorimetric, acetylthiocholine iodide); type: biochemical; settings: read-out: Residual activity at 10 µM (%) AChE
Chain of AChE (O42275 24-633): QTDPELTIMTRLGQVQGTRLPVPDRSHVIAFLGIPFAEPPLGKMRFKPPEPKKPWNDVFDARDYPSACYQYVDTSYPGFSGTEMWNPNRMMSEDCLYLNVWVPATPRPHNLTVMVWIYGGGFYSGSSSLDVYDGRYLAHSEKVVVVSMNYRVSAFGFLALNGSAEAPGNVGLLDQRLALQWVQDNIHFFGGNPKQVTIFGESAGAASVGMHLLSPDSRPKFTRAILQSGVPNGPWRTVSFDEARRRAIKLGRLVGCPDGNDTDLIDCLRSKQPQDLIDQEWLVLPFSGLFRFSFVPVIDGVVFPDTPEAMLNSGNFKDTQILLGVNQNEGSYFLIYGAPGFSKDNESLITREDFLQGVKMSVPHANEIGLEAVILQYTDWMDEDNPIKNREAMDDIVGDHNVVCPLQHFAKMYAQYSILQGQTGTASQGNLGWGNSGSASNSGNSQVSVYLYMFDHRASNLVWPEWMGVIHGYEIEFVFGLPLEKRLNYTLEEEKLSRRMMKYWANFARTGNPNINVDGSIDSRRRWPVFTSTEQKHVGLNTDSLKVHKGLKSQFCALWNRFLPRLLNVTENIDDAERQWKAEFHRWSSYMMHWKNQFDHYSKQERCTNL
Experimental: as §1
POP, K LAB, Daejeon, Korea). After adding the substrate, 0.5 mM 5,5-dithiobis (2-nitrobenzoic acid) (DTNB) was added as the color development solution. The BACE-1 inhibitory activity was evaluated by β-secretase (BACE1) activity detection kit (Sigma-Aldrich, St. Louis, Mo, USA) using a fluorescence spectrometer (FS-2, Scinco, Seoul, Korea).
64. […] A new and rapid colorimetric determination of acetylcholinesterase activity. Biochem. Pharmacol. 7, 88-95. […]

BACE-1 = target: T2, BACE-1 (Homo sapiens, UniProt P56817); experiment: BACE-1 inhibition (β-secretase activity detection kit); type: biochemical; settings: 10 µM compound; read-out: Residual activity at 10 µM (%) BACE-1
T2 construct: purchased Sigma-Aldrich
T2 sequence (P56817 46-501): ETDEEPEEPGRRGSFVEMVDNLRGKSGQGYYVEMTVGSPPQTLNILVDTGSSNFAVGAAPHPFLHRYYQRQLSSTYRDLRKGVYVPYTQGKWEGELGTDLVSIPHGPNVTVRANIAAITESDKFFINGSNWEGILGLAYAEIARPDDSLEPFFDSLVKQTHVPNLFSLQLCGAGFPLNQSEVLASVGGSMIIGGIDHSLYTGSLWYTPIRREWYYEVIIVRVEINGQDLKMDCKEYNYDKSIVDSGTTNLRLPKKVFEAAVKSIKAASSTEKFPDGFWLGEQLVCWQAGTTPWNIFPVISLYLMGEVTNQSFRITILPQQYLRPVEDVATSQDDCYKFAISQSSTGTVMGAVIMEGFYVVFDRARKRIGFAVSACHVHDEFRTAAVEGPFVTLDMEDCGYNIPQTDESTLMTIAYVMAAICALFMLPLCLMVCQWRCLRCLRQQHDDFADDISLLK
Experimental: as §1, §2

MAO-A = target: T3, MAO-A (Homo sapiens, UniProt P21397); experiment: MAO-A inhibition assay (recombinant enzyme, kynuramine substrate); type: biochemical; settings: recombinant MAO-A, kynuramine 0.06 mM; for remaining activity at 10 µM: 10 µM compound, read-out: Residual Activity at 10 µM (%) MAO-A; for IC50: read-out: IC50 (µM) MAO-A
T3 construct: purchased Sigma-Aldrich
T3 sequence (P21397 1-527): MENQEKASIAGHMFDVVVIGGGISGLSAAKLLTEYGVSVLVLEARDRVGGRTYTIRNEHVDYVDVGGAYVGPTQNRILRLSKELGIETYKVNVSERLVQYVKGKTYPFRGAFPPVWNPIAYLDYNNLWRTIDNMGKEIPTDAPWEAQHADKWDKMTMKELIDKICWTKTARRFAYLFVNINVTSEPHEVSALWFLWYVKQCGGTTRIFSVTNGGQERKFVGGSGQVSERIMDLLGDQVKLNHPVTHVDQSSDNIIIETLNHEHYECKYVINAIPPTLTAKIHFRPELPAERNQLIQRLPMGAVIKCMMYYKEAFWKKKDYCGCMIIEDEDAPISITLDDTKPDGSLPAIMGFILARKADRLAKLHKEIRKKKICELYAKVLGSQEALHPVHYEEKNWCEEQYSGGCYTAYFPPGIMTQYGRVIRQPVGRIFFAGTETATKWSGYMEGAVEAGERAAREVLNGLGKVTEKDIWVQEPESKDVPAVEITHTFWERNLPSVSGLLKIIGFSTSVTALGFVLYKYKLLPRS
Experimental: (§10) Recombinant MAO-A and MAO-B were used to test the MAO inhibitory activity using the substrates kynuramine and benzylamine (0.06 mM and 0.3 mM, respectively). […] Chemicals were from Sigma-Aldrich.
as §9

MAO-B [4] = target: T1, MAO-B; experiment: MAO-B inhibition assay (recombinant enzyme, benzylamine substrate); type: biochemical
Experimental: as §10, §9

Structure (SMILES)	Reversibility of MAO-B inhibition (MAO-B [1])	Relative MAO-B activity, dialyzed (AD) (MAO-B [1])	Relative MAO-B activity, undialyzed (AU) (MAO-B [1])	remaining activity at 10 µM (BChE)	Morphological observation of Vero cells (Vero cells)	IC50 at 48 h ([2]; Vero cells (kidney epithelial cells), 10–500 µg/mL, read-out: IC50 (Vero cell viability))	viability at 48 h, 100 µg/mL ([2]; 100 µg/mL, read-out: Cells alive (relative cell viability))	Inhibition pattern of MAO-B (MAO-B [3])	Ki (MAO-B [3])	remaining activity at 10 µM (AChE)	remaining activity at 10 µM (BACE-1)	remaining activity at 10 µM (MAO-A)	IC50 (MAO-A)	remaining activity at 10 µM (MAO-B [4]; 10 µM compound, recombinant MAO-B, benzylamine 0.3 mM, read-out: Residual Activity at 10 µM (%) MAO-B)	SI (selectivity index for MAO-B as compared to MAO-A) (MAO-B [4]; IC50 MAO-A divided by IC50 MAO-B)	Times more MAO-B inhibition than meta-F analogue DM19 (MAO-B [4]; ortho-F (DM18) versus meta-F (DM19))	IC50 (MAO-B [4]; recombinant MAO-B, benzylamine 0.3 mM, read-out: IC50 (µM) MAO-B)
COc1ccc(C(=O)/C=C/c2ccccc2Cl)c(OC)c1 [DM2]	reversible	74.0%	36.0%	64.16 ± 0.44%	cytotoxicity was evident in cell shrinkage and blebbing, and cellular density decreased	183 µg/mL (≈ 605 µM)	80%	competitive inhibitors	32 ± 4 nM	71.9 ± 2.87%	100.5 ± 0.18%	41.5 ± 1.59%	6.29 ± 0.432 µM	–	–	–	–
COc1ccc(C(=O)/C=C/c2ccccc2F)cc1OC [DM18]	reversible	76.6%	40.1%	59.5 ± 4.08%	–	–	–	competitive inhibitors	45 ± 1 nM	78.5 ± 4.89%	99.94 ± 0.01%	100 ± 0.01%	> 40 µM	8.87 ± 1.08%	>338.98	3.75	0.118 ± 0.036 µM
